# What was measured:
# [1] = Equilibrium solubility determined after stirring the compound in buffered solution for more than 5 hours at pH 7.4; assay type: ADME
# [2] = target: T1, Cholecystokinin receptor type A (Rattus norvegicus, UniProt P30551); assay: The compound was tested for binding activity against Cholecystokinin type A receptor from rat pancreas using [125]BH CCK-8s as radioligand.
# T1 sequence (P30551 whole entry): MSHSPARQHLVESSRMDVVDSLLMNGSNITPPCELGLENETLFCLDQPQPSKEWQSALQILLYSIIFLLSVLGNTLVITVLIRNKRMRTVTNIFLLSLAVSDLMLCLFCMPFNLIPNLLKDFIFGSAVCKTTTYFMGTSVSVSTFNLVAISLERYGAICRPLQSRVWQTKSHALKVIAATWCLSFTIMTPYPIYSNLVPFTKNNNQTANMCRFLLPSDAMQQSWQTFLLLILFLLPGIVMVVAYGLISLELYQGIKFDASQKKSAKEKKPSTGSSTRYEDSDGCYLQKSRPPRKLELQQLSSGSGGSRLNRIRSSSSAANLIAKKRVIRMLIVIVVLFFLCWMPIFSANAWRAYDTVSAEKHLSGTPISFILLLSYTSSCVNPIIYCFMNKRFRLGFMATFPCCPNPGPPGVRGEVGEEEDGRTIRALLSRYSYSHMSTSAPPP
# [3] = Equilibrium solubility determined after stirring the compound in buffered solution for more than 5 hours at pH 8.00; assay type: ADME
# [4] = Equilibrium solubility determined after stirring the compound in buffered solution for more than 5 hours at pH 7; assay type: ADME
# [5] = target: T1, Cholecystokinin receptor type A; assay: The compound was tested for binding activity against Cholecystokinin type A receptor from rat pancreatic tissue using [125]BH CCK-A as radioligand
# [6] = Equilibrium solubility determined after stirring the compound in buffered solution for more than 5 hours at pH 8.0; assay type: ADME
compound,measurement,setting,value
Cc1ccc(NC(=O)N[C@H]2N=C(c3ccccc3)c3ccccc3N(C)C2=O)cc1,solubility thermodynamic at 5 h,[1],> 2 µg/mL
same,IC50,[2],736 nM
CN1C(=O)[C@H](NC(=O)Nc2ccc(-c3nc(=O)o[nH]3)cc2)N=C(c2ccccc2)c2ccccc21,IC50,[2],15.4 nM
CC(C)CN1C(=O)[C@@H](NC(=O)Nc2ccc(-c3nn[nH]n3)cc2)N=C(c2ccccc2)c2ccccc21,solubility thermodynamic at 5 h,[3],> 11000 µg/mL
same,solubility thermodynamic at 5 h,[4],1400 µg/mL
same,IC50,[5],1430 nM
CN1C(=O)[C@@H](NC(=O)Nc2ccc(-c3nnn[nH]3)cc2)N=C(c2ccccc2)c2ccccc21,solubility thermodynamic at 5 h,[1],3740 µg/mL
same,IC50,[5],577 nM
CN1C(=O)[C@@H](NC(=O)Nc2ccc(-c3noc(O)n3)cc2)N=C(c2ccccc2)c2ccccc21,solubility thermodynamic at 5 h,[1],410 µg/mL
same,solubility thermodynamic at 5 h,[6],1660 µg/mL
same,IC50,[2],983 nM
CC(C)CN1C(=O)[C@H](NC(=O)Nc2ccc(-c3nnn[nH]3)cc2)N=C(c2ccccc2)c2ccccc21,IC50,[2],379 nM
CN1C(=O)[C@H](NC(=O)Nc2ccc(-c3nn[nH]n3)cc2)N=C(c2ccccc2)c2ccccc21,IC50,[2],6.16 nM
"CN1C(=O)C(NC(=O)Nc2ccc(C(=O)O)cc2)N=C(c2ccccc2)c2ccccc21 (single isomer, unassigned)",solubility thermodynamic at 5 h,[1],4700 µg/mL
same,IC50,[2],1550 nM
